Results from US10662156B2, “Guanidine derivative and medical use thereof” (Toray Industries, Inc., priority 2016, dated 2020).
Counter-ions that a name gives are not always drawn.

biological target: recombinant GST fusion MALT1 (human MALT1) (Homo sapiens (Human), UniProt Q9UDY8); experiment: Evaluation of inhibition of protease activity of MALT1 (cleavage of fluorescent peptide substrate Ac-LRSR-AMC); assay type: biochemical; settings: substrate Ac-LRSR-AMC 20 μmol/L, 30° C. for 80 minutes
In short: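 GST-tagged full-length human MALT1 from E. coli ([…]) was preincubated with compound 30 min at room temperature. Buffer: MES, 150 mM NaCl, 10% sucrose, 0.1% CHAPS, 10 mM DTT, 1 mol/L ammonium citrate. Ac-LRSR-AMC (20 μM final) was then cleaved 80 min at 30 °C; AMC fluorescence (Ex 380/Em 460) gain gave % inhibition versus no-enzyme and DMSO controls.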

Chain of recombinant GST fusion MALT1 (human MALT1) (Q9UDY8 whole entry, the tested form may be a part): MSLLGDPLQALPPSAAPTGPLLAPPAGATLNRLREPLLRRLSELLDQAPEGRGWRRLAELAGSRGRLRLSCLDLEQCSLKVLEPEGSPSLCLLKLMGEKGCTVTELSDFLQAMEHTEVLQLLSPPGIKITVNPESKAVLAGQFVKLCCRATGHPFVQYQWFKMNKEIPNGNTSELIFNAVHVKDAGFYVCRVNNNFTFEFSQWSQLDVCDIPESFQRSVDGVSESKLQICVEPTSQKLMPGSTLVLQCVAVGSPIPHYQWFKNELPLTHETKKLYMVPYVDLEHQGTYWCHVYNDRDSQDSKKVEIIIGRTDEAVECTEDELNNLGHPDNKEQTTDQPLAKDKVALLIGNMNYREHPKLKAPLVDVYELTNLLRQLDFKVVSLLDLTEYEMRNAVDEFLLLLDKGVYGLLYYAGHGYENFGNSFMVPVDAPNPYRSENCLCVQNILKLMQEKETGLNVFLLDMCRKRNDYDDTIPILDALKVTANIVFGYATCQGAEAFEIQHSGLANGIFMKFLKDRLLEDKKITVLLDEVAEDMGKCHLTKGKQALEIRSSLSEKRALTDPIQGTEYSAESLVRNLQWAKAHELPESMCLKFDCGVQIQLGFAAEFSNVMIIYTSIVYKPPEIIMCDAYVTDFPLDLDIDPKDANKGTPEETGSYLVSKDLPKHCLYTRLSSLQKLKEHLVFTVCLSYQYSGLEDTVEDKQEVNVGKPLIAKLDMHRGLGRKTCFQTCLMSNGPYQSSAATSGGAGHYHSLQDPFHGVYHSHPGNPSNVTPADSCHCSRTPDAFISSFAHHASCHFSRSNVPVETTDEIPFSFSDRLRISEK

| Structure (SMILES) | IC50 [nM] |
| --- | --- |
| NN/C(=N\S(=O)(=O)c1ccccc1)NCc1cnc(-c2ccc(Cl)cc2)c(-c2ccc(Cl)cc2)c1 [Compound of Example 38, N-((5,6-bis(4-chlorophenyl)pyridin-3-yl)methyl)-N′-(phenylsulfonyl)hydrazinecarboximidate] | 90 |
| N#Cc1ccc(-c2cc(CN/C(N)=N/S(=O)(=O)c3ccccc3)cnc2-c2ccc(Cl)cc2)cc1 [Compound of Example 19, N-(amino(((6-(4-chlorophenyl)-5-(4-cyanophenyl)pyridin-3-yl)methyl)amino)methylene)benzenesulfonamide] | 1520 |
| Cc1ccc(-c2ncc(CN/C(N)=N/S(=O)(=O)c3cccs3)cc2-c2ccc(C(F)(F)F)cc2)cc1 [Compound of Example 33, N-(amino(((6-(4-methylphenyl)-5-(4-(trifluoromethyl)phenyl)pyridin-3-yl)methyl)amino)methylene)thiophene-2-sulfonamide Hydrochloride] | 2070 |
| N/C(=N\S(=O)(=O)c1ccccc1)NCc1cnc(-c2ccccc2)c(-c2ccc(Cl)cc2)c1 [Compound of Example 3, N-(amino(((5-(4-chlorophenyl)-6-phenylpyridin-3-yl)methyl)amino)methylene)benzenesulfonamide] | 705 |
| COc1ccc(-c2cc(CN/C(N)=N/S(=O)(=O)c3ccccc3)cnc2-c2ccc(Cl)cc2)cc1F [Compound of Example 37, N-(amino(((6-(4-chlorophenyl)-5-(3-fluoro-4-methoxyphenyl)pyridin-3-yl)methyl)amino)methylene)benzenesulfonamide] | 1270 |
| N/C(=N\S(=O)(=O)c1ccccc1)NCc1cnc(-c2ccc(Cl)cc2F)c(-c2ccc(Cl)cc2)c1 [Compound of Example 36, N-(amino(((6-(4-chloro-2-fluorophenyl)-5-(4-chlorophenyl)pyridin-3-yl)methyl)amino)methylene)benzenesulfonamide] | 237 |
| N/C(=N\S(=O)(=O)c1ccccc1)NCc1cnc(-c2cccc(F)c2)c(-c2ccc(Cl)cc2)c1 [Compound of Example 9, N-(amino(((5-(4-chlorophenyl)-6-(3-fluorophenyl)pyridin-3-yl)methyl)amino)methylene)benzenesulfonamide] | 1710 |
| COc1ccc(-c2cc(CN/C(N)=N/S(=O)(=O)c3ccccc3)cnc2-c2ccc(Cl)cc2)cc1 [Compound of Example 18, N-(Amino(((6-(4-chlorophenyl)-5-(4-methoxyphenyl)pyridin-3-yl)methyl)amino)methylene)benzenesulfonamide] | 24 |

Further lines, results first:

| IC50 [nM] | Structure (SMILES) |
| --- | --- |
| 1070 | N/C(=N\S(=O)(=O)c1ccccc1)NCc1cnc(-c2ccc(C(F)(F)F)cc2)c(-c2ccccc2)c1 [Compound of Example 93, N-(amino(((5-phenyl-6-(4-(trifluoromethyl)phenyl)pyridin-3-yl)methyl)amino)methylene)benzenesulfonamide] |
| 880 | CC(C)(C(=O)/N=C(\N)NCc1cnc(-c2ccc(Cl)cc2)c(-c2ccc(Cl)cc2)c1)c1ccccc1 [Compound of Example 86, N-(amino(((5,6-bis(4-chlorophenyl)pyridin-3-yl)methyl)amino)methylene)-2-methyl-2-phenylpropanamide] |
| 373 | N/C(=N\C(=O)C1CCC(F)(F)CC1)NCc1cnc(-c2ccc(Cl)cc2)c(-c2ccc(Cl)cc2)c1 [Compound of Example 85, N-(amino(((5,6-bis(4-chlorophenyl)pyridin-3-yl)methyl)amino)methylene)-4,4-difluorocyclohexanecarboxamide] |
| 333 | N/C(=N\S(=O)(=O)c1cccc(Cl)c1)NCc1cnc(-c2ccc(Cl)cc2)c(-c2ccc(Cl)cc2)c1 [Compound of Example 48, N-(amino(((5,6-bis(4-chlorophenyl)pyridin-3-yl)methyl)amino)methylene)-3-chlorobenzenesulfonamide] |
| 1510 | N/C(=N\C(=O)c1ccc(Cl)cc1)NCc1cnc(-c2ccc(Cl)cc2)c(-c2ccc(Cl)cc2)c1 [Compound of Example 76, N-(amino(((5,6-bis(4-chlorophenyl)pyridin-3-yl)methyl)amino)methylene)-4-chlorobenzamide] |
| 390 | N#Cc1ccc(S(=O)(=O)/N=C(\N)NCc2cnc(-c3ccc(Cl)cc3)c(-c3ccc(Cl)cc3)c2)cn1 [Compound of Example 52, N-(amino(((5,6-bis(4-chlorophenyl)pyridin-3-yl)methyl)amino)methylene)-6-cyanopyridine-3-sulfonamide] |
| 341 | N/C(=N\C(=O)C1CCCC1)NCc1cnc(-c2ccc(Cl)cc2)c(-c2ccc(Cl)cc2)c1 [Compound of Example 70, N-(amino(((5,6-bis(4-chlorophenyl)pyridin-3-yl)methyl)amino)methylene)cyclopentanecarboxamide] |
| 1380 | N/C(=N\C(=O)CC(F)(F)F)NCc1cnc(-c2ccc(Cl)cc2)c(-c2ccc(Cl)cc2)c1 [Compound of Example 84, N-(amino(((5,6-bis(4-chlorophenyl)pyridin-3-yl)methyl)amino)methylene)-3,3,3-trifluoropropanamide] |
